Read-outs that look alike come from different tables or passages of the source.
What was measured:
[1] = tested on: non-diabetic male Wistar rats; experiment: Blood glucose levels after intrajejunal injection in fasted non-diabetic rats; assay type: in vivo, rat; details: for effect on blood glucose levels: 100 μL
Procedure: About 250 μL of blood was collected at regular intervals in order to determine the blood glucose level. The obtained values, plotted as mean percent change±standard error in blood glucose levels with respect to initial reading (n=3) versus time, are shown in FIG. 7.
About 250 μL of blood was collected at regular intervals in order to determine the blood glucose level. The obtained values, plotted as mean percent change±standard error in blood glucose levels with respect to initial reading (n=3) versus time, are shown in FIG. 8.
The obtained values, plotted as mean percent change±standard error in blood glucose levels with respect to initial reading (n=4) versus time, are shown in FIG. 9.

[2] = Physical form of choline-based ionic liquids at room temperature; assay type: physicochemical
Procedure: Several ionic liquids comprising choline as a cation and various anions were synthesized. […] For anions not miscible with the aqueous choline bicarbonate solution, a co-solvent, such as ethanol, was added until a homogenous mixture formed. The mixture was stirred at room temperature until CO2 evolution ceased. Solvent was removed by rotary evaporation at 60° C. for 20 minutes, and each product was dried in a vacuum oven for 48 hours at 60° C.

[3] = Liraglutide serum concentration after intrajejunal injection of liraglutide with choline-based ionic liquid; details: for Peak 5-Hour Liraglutide Concentration: non-diabetic rats
Procedure: (§1) Adult non-diabetic male Wistar rats were fasted overnight but given free access to water and subsequently dosed via intrajejunal injection with liraglutide and choline-hydrocinnamic acid. A fasting control group was dosed with a saline solution via intrajejunal injection. About 250 L of blood was collected at hourly intervals in order to determine the liraglutide serum concentration.
(§2) Adult non-diabetic male Wistar rats were fasted overnight but given free access to water and subsequently dosed via intrajejunal injection with liraglutide and one of various choline-based ionic liquids.

[4] = male, Wistar, rat, in vivo
Procedure: as §1, §2

[5] = tested on: non-diabetic male Wistar rats; experiment: 30-day daily oral gavage safety study
Procedure: Adult non-diabetic male Wistar rats were dosed daily for 30 days via oral gavage with either 25 or 100 uL Choline-Cinnamic Acid 1:1.5. Two placebo groups received either 25 or 100 uL saline. Animals were observed daily for general health and weight recorded. On day 31, all animals were euthanized, and tissue, blood and plasma samples collected for analysis.

[6] = cation:anion 1:1, room temperature
[7] = cation:anion 1:2, room temperature
[8] = cation:anion 2:1, room temperature

| Physical Form (Ratios Listed as Cation:Anion) [2, 6] | Physical Form (Ratios Listed as Cation:Anion) [2, 7] | Molecule | further results |
| --- | --- | --- | --- |
| Liquid | Solid | CCCCCCCC(=O)O [Octanoic Acid] | effect on blood glucose levels [1]: neither choline-octanoic acid nor choline-octenoic acid decreased blood glucose levels |
| Solid | Liquid | Cc1ccc(S(=O)(=O)O)cc1 [p-Toluenesulfonic Acid] | – |
| Liquid at 2:1, 1:1 | – | CCC(=O)O [Propionic Acid] | Physical Form (Ratios Listed as Cation:Anion) [2, 8]: Liquid at 2:1, 1:1 |
| Solid | Liquid | CCCCC/C=C\C/C=C\CCCCCCCC(=O)O [Linoleic Acid] | Peak 5-Hour Liraglutide Concentration [4]: 44 ng/mL; fold improvement of liraglutide concentration over choline-citronellic acid [4]: about 10 fold |
| Liquid at 1:1, 1:2 | Liquid at 1:1, 1:2 | C/C=C/C=C/C(=O)O [Sorbic Acid] | – |
| Liquid at 2:1, 1:1 | – | O=C(O)CCCCCC(=O)O [Pimelic Acid] | Physical Form (Ratios Listed as Cation:Anion) [2, 8]: Liquid at 2:1, 1:1 |
| Liquid at 1:1, 1:2 | Liquid at 1:1, 1:2 | CC(=O)C(=O)O [Pyruvic Acid] | – |
| Liquid at 2:1, 1:1 | – | O=C(O)CC(O)C(=O)O (stereo not shown) [Malic Acid] | Physical Form (Ratios Listed as Cation:Anion) [2, 8]: Liquid at 2:1, 1:1 |
| Liquid at 1:1, 1:2 | Liquid at 1:1, 1:2 | CC(=O)CCC(=O)O [Levulinic Acid] | – |
| Liquid at 1:1, 1:2 | Liquid at 1:1, 1:2 | CCC/C=C/C(=O)O [Trans-2-Hexenoic Acid] | – |
| Liquid at 1:1 | – | O=C(O)CC(=O)O [Malonic Acid] | – |
| Solid at 1:1 | – | COc1cc(/C=C/C(=O)O)ccc1O [Trans-Ferulic Acid] | – |
| Solid at 1:1 | – | C=C(C)[C@@H]1CC=C(C(=O)O)CC1 [Perillic Acid] | – |
| Solid at 1:1 | – | CCCCCCCCCCC(=O)O [Undecanoic Acid] | – |
| Liquid at 1:1, 1:2 | Liquid at 1:1, 1:2 | O=C(O)C(O)c1ccccc1 (stereo not shown) [Mandelic Acid] | – |
| Liquid at 2:1, 1:1, 1:2 | Liquid at 2:1, 1:1, 1:2 | O=C(O)CCC(=O)O [Succinic Acid] | Physical Form (Ratios Listed as Cation:Anion) [2, 8]: Liquid at 2:1, 1:1, 1:2 |
| Solid at 1:1 | – | COc1cc(C(=O)O)cc(OC)c1O [Syringic Acid] | – |
| Liquid at 1:1, 1:2 | Liquid at 1:1, 1:2 | CCCCC/C=C/C(=O)O [Trans-2-Octenoic Acid] | – |
| Solid at 1:1, 1:2 | Solid at 1:1, 1:2 | CCCCCCCCC(=O)O [Nonanoic Acid] | – |
| Liquid at 2:1, 1:1 | – | O=C(O)/C=C\C(=O)O [Maleic Acid] | Physical Form (Ratios Listed as Cation:Anion) [2, 8]: Liquid at 2:1, 1:1 |

Further lines, the molecule ahead of its results:

| Molecule | Physical Form (Ratios Listed as Cation:Anion) [2, 6] | Physical Form (Ratios Listed as Cation:Anion) [2, 7] | further results |
| --- | --- | --- | --- |
| CC(C)=CCCC(C)CC(=O)O (stereo not shown) [citronellic acid alone, citronellic acid, reference compound] | – | – | blood glucose levels, % of starting levels ([1]; 38 μL dose (acid content of 50 μL ionic liquid)): about 30% |
| Hydrocinnamic Acid (3-Phenylpropionic Acid) | Liquid at 1:1, 1:2 | Liquid at 1:1, 1:2 | blood concentration of liraglutide relative to those reported in the literature ([3]; liraglutide with choline-hydrocinnamic acid vs Buckley et al.): approximately 4,400 fold; liraglutide serum concentration ([3]; liraglutide with choline-hydrocinnamic acid, intrajejunal injection, rats): surprisingly high serum concentration; Peak 5-Hour Liraglutide Concentration ([3]; liraglutide with the ionic liquid, intrajejunal injection, listed as Choline-Hydrocinnamic acid): 2086 ng/mL; Peak 5-Hour Liraglutide Concentration ([3]; liraglutide with the ionic liquid, intrajejunal injection, listed as choline-hydrocinnamic acid): greater than 2000 ng/mL; fold improvement of liraglutide concentration over choline-citronellic acid ([3]; liraglutide with the ionic liquid, intrajejunal injection, rats): 500 fold |
| Choline-Octenoic acid | – | – | Peak 5-Hour Liraglutide Concentration ([3]; liraglutide with the ionic liquid, intrajejunal injection): 201 ng/mL; effect on blood glucose levels [1]: neither choline-octanoic acid nor choline-octenoic acid decreased blood glucose levels |
| O=C(O)CCC(=O)C(=O)O [α-Ketoglutaric Acid] | – | – | Physical Form (Ratios Listed as Cation:Anion) [2, 8]: Liquid at 2:1 |
| CC/C=C\C/C=C\C/C=C\C/C=C\C/C=C\CCCC(=O)O [Eicosapentanoic Acid (EPA)] | Solid at 1:1 | – | – |
| O=C(O)CCCC(=O)O [Glutaric Acid] | Liquid at 2:1, 1:1 | – | Physical Form (Ratios Listed as Cation:Anion) [2, 8]: Liquid at 2:1, 1:1 |
| CC(C)CCC(=O)O [4-Methylvaleric Acid] | – | Liquid at 1:2 | – |
| CC(C)CCCC(C)CC(=O)O (stereo not shown) [3,7-Dimethyloctanoic Acid] | Solid at 1:1, 1:2 | Solid at 1:1, 1:2 | – |
| O=C(O)C1CC2C=CC1C2 (stereo not shown) [5-Norbornene-2-carboxylic Acid] | Solid at 1:1 | – | – |
| CC(=O)O [Acetic Acid] | Liquid at 2:1, 1:1, 1:2 | Liquid at 2:1, 1:1, 1:2 | Physical Form (Ratios Listed as Cation:Anion) [2, 8]: Liquid at 2:1, 1:1, 1:2 |
| CC(CCC(C(=O)O)C(C)CC(C)(C)C)CC(C)(C)C (stereo not shown) [2-(4,4-Dimethyl-2-pentanyl)-5,7,7-trimethyloctanoic Acid] | Solid at 1:1 | – | – |
| O=C(O)C=Cc1ccccc1 [Cinnamic Acid] | Liquid at 1:1, 1:1.5, 1:2 | Liquid at 1:1, 1:1.5, 1:2 | Physical Form (Ratios Listed as Cation:Anion) ([2]; cation:anion 1:1.5, room temperature): Liquid at 1:1, 1:1.5, 1:2; appearance and physical form ([2]; room temperature, ratio as in label): viscous yellow liquids; plasma indicators of organ toxicity vs placebo ([5]; 25 or 100 uL daily oral gavage for 30 days, rats): not statistically significantly different; IHC staining of tight junction proteins Claudin-1 and Occludin of GI tract tissues vs placebo ([5]; rat, in vivo, po): no difference; blood cell counts vs placebo ([5]; rat, in vivo, po): not statistically significantly different; histological examination (H&E) of organs and GI tract tissues vs saline placebo ([5]; rat, in vivo, po): no significant difference |
| CCCCC(C)CCC(=O)O (stereo not shown) [4-Methyloctanoic Acid] | Liquid | Solid | – |
| Dihydrobenzoic Acid | Solid at 1:1 | – | – |
| O=C(O)CNC(=O)c1ccccc1O [2-Hydroxyhippuric Acid] | Solid at 1:1 | – | – |
| CC(C)=CCC/C(C)=C/C(=O)O [Geranic Acid] | Liquid at 1:1, 1:2 | Liquid at 1:1, 1:2 | – |
| O=C(O)CC(O)(CC(=O)O)C(=O)O [Citric Acid] | Solid | – | Physical Form (Ratios Listed as Cation:Anion) [2, 8]: Liquid; Physical Form (Ratios Listed as Cation:Anion) ([2]; cation:anion 3:1, room temperature): Liquid; Physical Form (Ratios Listed as Cation:Anion) ([2]; cation:anion 4:1, room temperature): Liquid |
| O=C(O)[C@H](O)[C@@H](O)[C@@H](O)[C@H](O)CO [D-(+)-Galactonic Acid] | Solid at 1:1 | – | – |
| O=C(O)/C=C/C(=O)O [Fumaric Acid] | Solid | – | Physical Form (Ratios Listed as Cation:Anion) [2, 8]: Liquid |

Reference: patent US20240130994A1, “IONIC LIQUID FORMULATIONS FOR TREATING DIABETES” (i2O Therapeutics, Inc., priority 2020, published 2024)
